Article PMC10057977, “Use of In Vivo Imaging and Physiologically-Based Kinetic Modelling to Predict Hepatic Transporter Mediated Drug–Drug Interactions in Rats” (Pharmaceutics, 2023)
Like-named read-outs stand apart in the source and are kept apart here.

How the values were obtained:
rOatp1b = target: T1, rOatp1b (Rattus norvegicus, UniProt Q9QZX8); format: in vivo; settings: for Simple Effect Size (95% CI) K^trans: gadoxetate hepatic plasma clearance; for Simple Effect Size (95% CI) K^trans / Simple Effect Size (95% CI) khe: control − treatment, positive = decrease; for Simple Effect Size (95% CI) khe: gadoxetate hepatic uptake
T1 construct: from tissue; host or cells: liver of living male Wistar rats (Charles River Laboratories)
T1 sequence (Q9QZX8 1-687): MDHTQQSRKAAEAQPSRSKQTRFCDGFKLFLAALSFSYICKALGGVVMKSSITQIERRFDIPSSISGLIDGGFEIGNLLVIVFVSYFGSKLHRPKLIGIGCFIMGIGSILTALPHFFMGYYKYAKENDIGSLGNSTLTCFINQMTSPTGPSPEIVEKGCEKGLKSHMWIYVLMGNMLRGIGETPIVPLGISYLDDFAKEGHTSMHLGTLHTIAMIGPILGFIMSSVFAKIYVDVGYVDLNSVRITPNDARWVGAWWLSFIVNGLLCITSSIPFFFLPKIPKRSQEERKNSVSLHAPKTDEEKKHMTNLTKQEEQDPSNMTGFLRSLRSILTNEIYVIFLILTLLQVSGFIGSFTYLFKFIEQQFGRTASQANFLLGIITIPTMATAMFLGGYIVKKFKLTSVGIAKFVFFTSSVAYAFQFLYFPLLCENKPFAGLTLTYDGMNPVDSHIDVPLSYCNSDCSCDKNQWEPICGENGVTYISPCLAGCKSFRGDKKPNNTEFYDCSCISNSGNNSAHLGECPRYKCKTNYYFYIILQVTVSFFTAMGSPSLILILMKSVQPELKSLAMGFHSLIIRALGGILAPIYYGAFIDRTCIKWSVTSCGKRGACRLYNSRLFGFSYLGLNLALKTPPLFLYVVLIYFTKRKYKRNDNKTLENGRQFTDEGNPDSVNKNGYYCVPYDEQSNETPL
From the text: (§1) The tracer-kinetic model was developed to enable estimation of rate constants of hepatobiliary efflux from DCE-MRI profiles in individual animals. In this approach, the liver was assumed to consist of two compartments, the extracellular space (e) and the hepatocytes (h). Since water exchanges rapidly between those spaces, the change in relaxation rate was a weighted average (Equation (4)). (4) ΔR1(t)=r1,e·ve·ce(t)+r1,h·vh·ch(t)
(§2) The proportionality constant, r1,τ [L⋅mmol^−1⋅s^−1] , is the relaxivity of the contrast agent for the compartment τ (extracellular space, e or hepatocytes, h) at the respective field strength, while vτ [mL/mL tissue] is the volume fraction of the compartment τ . Previously measured ex vivo r1,tau values for gadoxetate were used in this work, as per. The underlying assumptions of the PBPK and tracer-kinetic models, relating to physiological volumes and perfusion, are consistent, despite different parameterizations according to the purpose of each model. For example, Vliv,extr in the PBPK model is defined as an absolute volume (units = L; sum of liver plasma and interstitial volumes), while in the tracer-kinetic model, ve is a volume fraction (dimensionless), defined as Vliv,extr/Vliver , where Vliver is the total liver volume. While some analogy can be drawn between CLactive […], and CLbiliary and kbh, the interpretations are distinct. For example, the operating concentrations of the PBPK parameters CLactive […], and CLbiliary are the unbound concentrations of gadoxetate in plasma and hepatocytes, while the tracer-kinetic model is parameterized with respect to the total concentration of gadoxetate.
(§3) Since ce(t) is the input to the hepatocytes, and no backflux from hepatocytes to extracellular space is assumed, Equation (5) can be derived. (5) vh·ch(t)=e^−t/Th∗khe·ce(t) where Th is the mean transit time of gadoxetate in the hepatocytes [min] , and * is convolution. The extracellular space is assumed to be in equilibrium with the blood pool and therefore the concentration ce(t) is proportional to the concentration cp(t) in the plasma of the feeding artery, i.e., ce(t) = (1 − E)·cp(t), where E is the extraction fraction of gadoxetate in the liver. Combining this assumption with Equations (4) and (5), and using (1 − E)·khe = E·Fp, with Fp being the apparent plasma flow into the liver [mL/min/mL tissue volume] , gives Equation (6), the operational equation for gadoxetate DCE-MRI in the liver. (6) ΔR1(t)=(1−E)·ve·r1,p·cp(t)+E·Fp·r1,h ·e^−t/Th ∗cp(t)
The rate constants were derived as K^trans = E·Fp, khe = E·Fp/(1 − E), and kbh = vh/Th, with a literature value for vh. The plasma concentrations cp(t) were not reliably measured in small animals due to the small diameter of the main vessels compared to the resolution of the measurement. […] Therefore, the source term cp(t) was derived from a two-compartment pharmacokinetic model for gadoxetate (see Supplementary Material, Section S5), and a step function as input in the blood compartment. The parameters kbh and khe were fitted to the liver data using a model implementation in Python. For each rat considered in these studies, the rate constants K^trans, khe, and kbh were calculated, in both control and inhibitory phases. […] Statistical significance was assessed through a two-sided paired t-test, with p < 0.05 considered significant.

OATP1B3 = test system: OATP1B3; parameters: method as in earlier work; settings: in vitro; ref 30,43-55 and in-house data from Merck & Co.; cited from earlier work
OATP1B1 = test system: OATP1B1; parameters: method as in earlier work; settings: in vitro; bracket not explained in the table; ref 30,43-55 and in-house data from Merck & Co.; cited from earlier work
rMrp2 = rMrp2 (Rattus norvegicus, UniProt Q63120); format: in vivo; parameters: from tissue; host or cells: liver of living male Wistar rats (Charles River Laboratories); settings: for Simple Effect Size (95% CI) kbh: gadoxetate biliary efflux, control − treatment, positive = decrease, site G2
From the text: as §1, §2, §3
The rate constants were derived as K^trans = E·Fp, khe = E·Fp/(1 − E), and kbh = vh/Th, with a literature value for vh. The plasma concentrations cp(t) were not reliably measured in small animals due to the small diameter of the main vessels compared to the resolution of the measurement. […] Therefore, the source term cp(t) was derived from a two-compartment pharmacokinetic model for gadoxetate (see Supplementary Material, Section S5), and a step function as input in the blood compartment. The parameters kbh and khe were fitted to the liver data using a model implementation in Python. For each rat considered in these studies, the rate constants K^trans, khe, and kbh were calculated, in both control and inhibitory phases. The rate constants of the control and inhibitory phases were compared via calculation of simple (unstandardized) effect sizes (i.e., simple effect size = μcontrol − μtreatment, where μ is the mean average of all subjects) at the 95% confidence level. Statistical significance was assessed through a two-sided paired t-test, with p < 0.05 considered significant.

[1] = fraction unbound in plasma; cited from earlier work
[2] = pioglitazone 0.4 mg/kg iv, site E

rMrp2, sequence (Q63120 whole entry): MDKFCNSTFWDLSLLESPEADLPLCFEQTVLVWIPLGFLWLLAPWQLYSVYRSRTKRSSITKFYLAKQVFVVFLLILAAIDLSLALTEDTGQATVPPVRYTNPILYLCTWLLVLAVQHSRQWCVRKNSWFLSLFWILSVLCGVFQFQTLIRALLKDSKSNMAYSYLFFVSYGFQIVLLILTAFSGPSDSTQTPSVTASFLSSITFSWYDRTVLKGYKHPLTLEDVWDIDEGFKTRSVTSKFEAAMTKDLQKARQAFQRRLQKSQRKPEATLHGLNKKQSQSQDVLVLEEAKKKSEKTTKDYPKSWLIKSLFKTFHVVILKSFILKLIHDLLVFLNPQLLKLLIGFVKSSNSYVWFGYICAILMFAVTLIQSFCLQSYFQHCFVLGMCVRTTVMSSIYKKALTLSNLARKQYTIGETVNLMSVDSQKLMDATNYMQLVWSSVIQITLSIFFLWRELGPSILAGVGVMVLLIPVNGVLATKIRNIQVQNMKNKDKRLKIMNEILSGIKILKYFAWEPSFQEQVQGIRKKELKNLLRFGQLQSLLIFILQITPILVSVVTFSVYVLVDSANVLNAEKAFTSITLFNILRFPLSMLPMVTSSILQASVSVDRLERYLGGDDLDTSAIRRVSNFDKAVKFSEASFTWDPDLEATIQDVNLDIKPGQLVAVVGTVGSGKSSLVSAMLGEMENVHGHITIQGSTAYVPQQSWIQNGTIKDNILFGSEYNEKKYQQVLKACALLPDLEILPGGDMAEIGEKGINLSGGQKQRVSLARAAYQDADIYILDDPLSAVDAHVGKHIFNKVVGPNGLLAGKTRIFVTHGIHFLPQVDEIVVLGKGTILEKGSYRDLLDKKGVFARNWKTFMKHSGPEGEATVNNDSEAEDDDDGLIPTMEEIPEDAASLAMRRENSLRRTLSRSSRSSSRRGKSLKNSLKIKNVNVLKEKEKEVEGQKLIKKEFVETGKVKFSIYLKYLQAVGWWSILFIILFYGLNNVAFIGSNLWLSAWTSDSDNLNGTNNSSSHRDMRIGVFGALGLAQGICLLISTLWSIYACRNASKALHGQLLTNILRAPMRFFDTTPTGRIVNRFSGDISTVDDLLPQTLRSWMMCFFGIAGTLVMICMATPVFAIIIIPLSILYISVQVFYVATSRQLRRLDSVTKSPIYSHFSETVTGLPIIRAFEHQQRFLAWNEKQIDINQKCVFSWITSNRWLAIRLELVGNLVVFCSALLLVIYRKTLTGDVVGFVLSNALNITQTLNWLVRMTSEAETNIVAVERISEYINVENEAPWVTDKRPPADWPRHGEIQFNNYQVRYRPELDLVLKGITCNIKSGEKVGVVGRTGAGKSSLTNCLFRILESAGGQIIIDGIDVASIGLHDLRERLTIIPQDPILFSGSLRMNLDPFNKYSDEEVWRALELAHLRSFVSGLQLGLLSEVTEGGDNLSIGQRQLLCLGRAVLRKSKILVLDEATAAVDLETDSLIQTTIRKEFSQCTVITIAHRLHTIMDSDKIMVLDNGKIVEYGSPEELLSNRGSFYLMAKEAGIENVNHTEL

For `C=C[C@@H]1C[C@]1(NC(=O)[C@@H]1C[C@@H](Oc2ncc(OC)c3ccc(Cl)cc23)CN1C(=O)[C@@H](NC(=O)OC(C)(C)C)C(C)(C)C)C(=O)NS(=O)(=O)C1CC1` [Asunaprevir], the “Simple Effect Size (95% CI) K^trans” value (rOatp1b; asunaprevir 5 mg/kg iv, site E) is listed as 0.24 (−0.01, 0.48) mL/min/mL liver, the “Simple Effect Size (95% CI) khe” value (rOatp1b; asunaprevir 5 mg/kg iv, site E) is listed as 2.34 (−0.92, 5.60) mL/min/mL liver and the IC50 (OATP1B3) is listed as 0.65 µM. For the same molecule, the IC50 (OATP1B1) was 0.55 µM and the “decrease in gadoxetate kbh” value (rMrp2; rat, asunaprevir 5 mg/kg iv) was 31%.

For `COc1ccccc1Oc1c(NS(=O)(=O)c2ccc(C(C)(C)C)cc2)nc(-c2ncccn2)nc1OCCO` [Bosentan], the fu [1] is listed as under 0.02, the “Simple Effect Size (95% CI) K^trans” value (rOatp1b; bosentan 2 mg/kg iv, site G1, subjects 3, 4, 6 excluded) is listed as 0.28 (−0.32, 0.88) mL/min/mL liver and the “Simple Effect Size (95% CI) K^trans” value (rOatp1b; bosentan 4–6 mg/kg iv, site G2) is listed as 0.07 (−0.12, 0.26) mL/min/mL liver. For the same molecule, the “Simple Effect Size (95% CI) khe” value (rOatp1b; bosentan 2 mg/kg iv, site G1, subjects 3, 4, 6 excluded, khe physiologically implausible) was −54.22 (−197.97, 89.53) mL/min/mL liver, the “Simple Effect Size (95% CI) khe” value (rOatp1b; bosentan 4–6 mg/kg iv, site G2) was 1.07 (−1.13, 3.26) mL/min/mL liver and the IC50 (OATP1B3) was 5.2 µM. For the same molecule, the IC50 (OATP1B1) was 6.6 µM and the “Simple Effect Size (95% CI) kbh” value (rMrp2; bosentan 4–6 mg/kg iv) was 0.02 (−0.02, 0.07) mL/min/mL liver.

In the case of `CCc1ccc(CCOc2ccc(CC3SC(=O)NC3=O)cc2)nc1` (centres unmarked) [Pioglitazone], the fu [1] is listed as under 0.01, the “Simple Effect Size (95% CI) K^trans” value (rOatp1b; [2]) is listed as 0.13 (−0.05, 0.32) mL/min/mL liver and the “Simple Effect Size (95% CI) khe” value (rOatp1b; [2]) is listed as 1.21 (−0.10, 2.51) mL/min/mL liver. For the same molecule, the IC50 (OATP1B3) was 3.41 µM and the “decrease in gadoxetate kbh” value (rMrp2; rat, pioglitazone 0.4 mg/kg iv) was 19%.

In the case of `CO[C@H]1/C=C/O[C@@]2(C)Oc3c(C)c(O)c4c(O)c(c(/C=N/N5CCN(C)CC5)c(O)c4c3C2=O)NC(=O)/C(C)=C\C=C\[C@H](C)[C@H](O)[C@@H](C)[C@@H](O)[C@@H](C)[C@H](OC(C)=O)[C@@H]1C` [Rifampicin], the fu [1] is listed as 0.2, the “Simple Effect Size (95% CI) khe” value (rOatp1b; * p < 0.05, rifampicin 2 mg/kg iv, site G2) is listed as 7.20 mL/min/mL liver and the IC50 (OATP1B3) is listed as 0.11 µM. For the same molecule, the IC50 (OATP1B1) was 1.9 µM, the Ki (OATP1B1) was 0.67 µM and the “Simple Effect Size (95% CI) kbh” value (rMrp2; ** p < 0.01, rifampicin 2 mg/kg iv) was 0.07 mL/min/mL liver.

In the case of `CCOc1ccc(C[C@@H](CN(CCN(CC(=O)[O-])CC(=O)[O-])CC(=O)[O-])N(CC(=O)[O-])CC(=O)[O-])cc1.[Gd+3].[H+].[H+]` [gadoxetate, Gadoxetate], the “hepatic extraction ratio (E)” value (rOatp1b; rat, in vivo) is reported as over 0.95, the “khe, new value in unified units” value (rOatp1b; rat, in vivo) is reported as 11.1 mL/min and the “khe, original value” (rOatp1b; rat, in vivo) is reported as 1.31 mL/ min/ mL tissue volume. For the same molecule, the “kbh, new value in unified units” value (rMrp2; rat, in vivo) was 1.19 mL/min and the “kbh, original value” (rMrp2; rat, in vivo) was 0.14 mL/ min/ mL tissue volume.
